Measurements published in publication PMC3806803 (PLoS ONE, 2013).

How the values were obtained:
[1] = biological target: H7 HA (recombinant) (Influenza A virus (A/Netherlands/219/2003(H7N7)), UniProt Q6VMK1)
[2] = biological target: H3 HA (recombinant) (Influenza A virus (A/Brisbane/10/2007(H3N2)), UniProt A8W8K8)
[3] = biological target: H7 HA (recombinant) (Influenza A virus (A/Netherlands/219/2003(H7N7)), UniProt Q6VMK1); remark: listed apart in the source

## CC(C)(C)c1cc(O)ccc1O [TBHQ]
[1]
  WaterLOGSY and STD NMR; competition with antibody F49: TBHQ binds to H7 HA and, based on the competition NMR experiment
[2]
  WaterLOGSY and STD NMR; competition with antibody F49: NMR experiment clearly indicates that TBHQ binds to H3 HA
[3]
  midpoint pH of proteolysis susceptibility with TBHQ: ~ 4.6 pH
